Usually IC50 stands for the concentration that inhibits the measured activity by half. In general, Km refers to the concentration of substrate that gives half-maximal velocity.

Drawing on paper PMC3411725 (PLoS ONE, 2012), this text covers Ki, IC50 and Km for two molecules.

In data set [1] the target is T1, AroAE.coli (Escherichia coli, UniProt P0A6D3).
T1 construct: gene aroA; overexpressed and purified as P1 (pET-28a, His-tag, E. coli BL21(DE3), HisTrap)
T1 sequence (P0A6D3 1-427): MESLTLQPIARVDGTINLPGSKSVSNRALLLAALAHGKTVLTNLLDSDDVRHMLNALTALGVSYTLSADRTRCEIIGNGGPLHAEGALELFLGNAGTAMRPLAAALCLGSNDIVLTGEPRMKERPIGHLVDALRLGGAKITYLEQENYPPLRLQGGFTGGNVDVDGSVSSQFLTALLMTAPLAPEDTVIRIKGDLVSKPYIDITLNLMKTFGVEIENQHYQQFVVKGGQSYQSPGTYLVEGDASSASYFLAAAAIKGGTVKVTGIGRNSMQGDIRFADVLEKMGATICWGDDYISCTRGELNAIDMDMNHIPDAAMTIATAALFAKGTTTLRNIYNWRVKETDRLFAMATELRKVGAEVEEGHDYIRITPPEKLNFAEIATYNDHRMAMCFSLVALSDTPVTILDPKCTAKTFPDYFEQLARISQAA
The data set can be described thus: malachite green phosphate release assay, Lineweaver-Burk. Conditions: read-out: K i [glyphosate] ^d. The data set is classed as biochemical.

Data set [2] has as its target T1, AroAE.coli. Briefly: malachite green phosphate release assay, dose-response fit. The data set is classed as biochemical. Conditions: read-out: IC50 [glyphosate] ^e.
Data set [3] addresses T2, AroAE.coli (Escherichia coli, UniProt P0A6D3, G96A).
T2 construct: gene aroA
Briefly: biochemical.

Data set [4] deals with T2, AroAE.coli. Briefly: biochemical. This is another data set of the same source.
Substrate in data set [5]: C=C(OP(=O)(O)O)C(=O)O
Briefly: malachite green phosphate release assay, Lineweaver-Burk. The data set is classed as biochemical, Escherichia coli. As to conditions: 1 mM S3P, 50 mM HEPES pH 7.0, 28°C.

Regarding `O=C(O)CNCP(=O)(O)O` [glyphosate], the Ki came to 1.4 ± 0.1 µM in data set [1] and 219.3 ± 1.9 µM in data set [3]. The concentration for half-maximal inhibition (IC50) in data set [2] is 50 ± 10 µM; in data set [4], 220 ± 20 µM.

B1: AroAE.coli (Escherichia coli K-12) (protein)
chain: MESLTLQPIARVDGTINLPGSKSVSNRALLLAALAHGKTVLTNLLDSDDVRHMLNALTALGVSYTLSADRTRCEIIGNGGPLHAEGALELFLGNAGTAMRPLAAALCLGSNDIVLTGEPRMKERPIGHLVDALRLGGAKITYLEQENYPPLRLQGGFTGGNVDVDGSVSSQFLTALLMTAPLAPEDTVIRIKGDLVSKPYIDITLNLMKTFGVEIENQHYQQFVVKGGQSYQSPGTYLVEGDASSASYFLAAAAIKGGTVKVTGIGRNSMQGDIRFADVLEKMGATICWGDDYISCTRGELNAIDMDMNHIPDAAMTIATAALFAKGTTTLRNIYNWRVKETDRLFAMATELRKVGAEVEEGHDYIRITPPEKLNFAEIATYNDHRMAMCFSLVALSDTPVTILDPKCTAKTFPDYFEQLARISQAA
notes: overexpressed and purified as P1 (pET-28a, His-tag, E. coli BL21(DE3), HisTrap)
For B1, in data set [5], the Km came to 65.8 ± 5.6 µM.
